The term EC50 denotes the midpoint of the concentration-response curve.

The source of these data is ChEMBL document CHEMBL1158236, “Two new naphthoquinones with antiviral activity from Rhinacanthus nasutus” (J Nat Prod, 1996).

Structures are written as SMILES. Values after ≈ are worked out from the molar mass of the structure shown.

Assay type in all cases: functional, organism-based
The subject of one experiment is Human betaherpesvirus 5. Nature of the experiment: Antiviral activity against human cytomegalovirus by plaque-neutralization assay.
The test system of experiment [1] is Murid betaherpesvirus 1. Put plainly: Antiviral activity against mouse cytomegalovirus by plaque-neutralization assay.
Experiment [2] deals with Murid betaherpesvirus 1. Put plainly: Antiviral activity against mouse cytomegalovirus assessed as effect on virus-induced cytopathic effect.
In the next experiment the test system is Human alphaherpesvirus 2. Nature of the experiment: Antiviral activity against herpes simplex virus type 2 assessed as effect on virus-induced cytopathic effect. Background: Damage to the host cells serves as the signal in cytopathic effect assays.
The next experiment deals with Influenza A virus. Nature of the experiment: Antiviral activity against influenza A virus by hemadsorption inhibition assay.
In experiment [3] the test system is Respiratory syncytial virus. Put plainly: Antiviral activity against respiratory syncytial virus assessed as effect on virus-induced cytopathic effect. The following applies: human respiratory syncytial virus.

Take `CC(C)(COC(=O)c1ccc2c(c1)OCO2)CC1=C(O)C(=O)c2ccccc2C1=O`: the values for the half-maximal effective concentration (EC50) in the experiment on Human betaherpesvirus 5, in the experiment on Murid betaherpesvirus 1 [1] and with Murid betaherpesvirus 1 [2] were 0.22 µg/mL (≈ 0.539 µM), 9.5 µg/mL (≈ 23.3 µM) and 9.5 µg/mL (≈ 23.3 µM), respectively.

Regarding `Nc1nc2c(ncn2COCCO)c(=O)[nH]1` [ACYCLOVIR], the EC50 with Human alphaherpesvirus 2 is 2.3 µg/mL (≈ 10.2 µM).

Compound `NC12CC3CC(CC(C3)C1)C2` [AMANTADINE] showed an EC50 in the experiment on Influenza A virus of 0.054 µg/mL (≈ 0.357 µM).

`Nc1nc2c(ncn2COC(CO)CO)c(=O)[nH]1` [GANCICLOVIR]: the EC50 in the experiment on Human betaherpesvirus 5 was 3.4 µg/mL (≈ 13.3 µM); in the experiment on Murid betaherpesvirus 1 [1], 13.8 µg/mL (≈ 54.1 µM); in the experiment on Murid betaherpesvirus 1 [2] it was 5 µg/mL (≈ 19.6 µM).

For `C/C=C(\C)CC/C=C(\C)C(=O)OCC(C)(C)CC1=C(O)C(=O)c2ccccc2C1=O` [RHINACANTHIN C], the values for the EC50 with Human betaherpesvirus 5, in the experiment with Murid betaherpesvirus 1 [1] and in the experiment with Murid betaherpesvirus 1 [2] were 0.02 µg/mL (≈ 0.0487 µM), 0.57 µg/mL (≈ 1.39 µM) and 1.1 µg/mL (≈ 2.68 µM), respectively.

`NC(=O)c1ncn([C@@H]2O[C@H](CO)[C@@H](O)[C@H]2O)n1` [RIBAVIRIN]: the EC50 in experiment [3] worked out at 1.8 µg/mL (≈ 7.37 µM).
